PubChem BioAssay (NCI)
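Growth conditions: 96-well plates. Treatment: test compound, 48 hours, 5 concentrations. Analysis: linear interpolation between bracketing concentrations; unreached endpoints set to highest concentration. The concentration for full growth arrest is given as TGI.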

Experiments:
Experiment in all cases: inhibition of tumour cell growth, NCI panel, 48 h
UO-31 renal = tested on: UO-31 renal
RXF 393 renal = tested on: RXF 393 renal
HL-60(TB) leukemia = tested on: HL-60(TB) leukemia
HCC-2998 colon = tested on: HCC-2998 colon
A498 renal = tested on: A498 renal
HT29 colon = tested on: HT29 colon
PC-3 prostate = tested on: PC-3 prostate
786-0 renal = tested on: 786-0 renal
HOP-92 NSCLC = tested on: HOP-92 NSCLC

Row | SMILES | TGI (UO-31 renal) | TGI (RXF 393 renal) | TGI (HL-60(TB) leukemia) | TGI (HCC-2998 colon) | TGI (A498 renal) | TGI (HT29 colon) | TGI (PC-3 prostate) | TGI (786-0 renal) | TGI (HOP-92 NSCLC)
1 | O=[N+]([O-])C(/C=C(\Cl)[N+](=O)[O-])=C1Nc2ccccc2N1 | > 100 µM | 95.9 µM | > 100 µM | > 100 µM | 70.4 µM | > 100 µM | > 100 µM | > 100 µM | 87 µM
2 | COc1cc(-c2nc3ccc(N4CCN(C)CC4)cc3[nH]2)c(OC)c2[nH]c(COC(C)=O)nc12 | > 100 µM | 59.4 µM | > 100 µM |  | > 100 µM | > 100 µM | > 100 µM | > 100 µM | > 100 µM
3 | CC(CC(N)C(=O)O)C(=O)O (centres undefined) | > 100 µM | > 100 µM | > 100 µM |  | > 100 µM | > 100 µM | > 100 µM | > 100 µM | > 100 µM
4 | COC(=O)N1CC(=O)C(C(=O)NC23CC4CC(CC(C4)C2)C3)C1 (centres undefined) | > 100 µM | > 100 µM | > 100 µM | > 100 µM | > 100 µM | > 100 µM | > 100 µM | > 100 µM | > 100 µM
5 | COc1ccc(/C=C/C(=O)/C=C/c2ccc(OC)cc2OC)c(OC)c1 | 41.3 µM | 37.1 µM | 13.9 µM | 13.3 µM |  | 12.7 µM | 44.2 µM | 29 µM | 67.5 µM
6 | S=C(NCCc1ccccn1)N/N=C/c1ccccn1 | > 49.1 µM | 12.2 µM | < 0.01 µM | > 100 µM | 0.571 µM | > 100 µM | > 100 µM | > 89.7 µM | 
7 | CCc1c2c(cc3c1CC1(C3)Cc3cc4c(c(C(=O)OC)c3C1)CCCC4)CCCC2 (centres undefined) | > 100 µM | > 100 µM | > 100 µM | > 100 µM | > 100 µM | > 100 µM | > 100 µM | > 100 µM | > 100 µM
8 | CSc1nc(C)cc(Nc2ccc(O)c(CN3CCOCC3)c2)n1 | > 100 µM | > 100 µM | > 100 µM | > 100 µM | > 100 µM | > 100 µM | > 100 µM | > 100 µM | > 100 µM
9 | O=P1(c2ccccc2)c2ccccc2-c2ccccc21 | > 100 µM | > 100 µM | > 100 µM | > 100 µM |  |  | > 100 µM | > 100 µM | > 100 µM
10 | COc1cc(CSc2ccc(O)cc2)cc(OC)c1OC | 52 µM | > 100 µM | > 100 µM |  | > 100 µM | > 100 µM | > 100 µM | > 100 µM | 71.3 µM
11 | Cc1nc(SCC(=O)Nc2ccc(Cl)cc2)c2sc(=S)n(-c3ccccc3)c2n1 |  | > 10 µM | > 10 µM | > 10 µM | > 10 µM | > 10 µM | > 10 µM | > 10 µM | > 10 µM
12 | COc1cc(C)c(/C=C2/N=C(c3ccccc3)OC2=O)c([N+](=O)[O-])c1OC |  | > 100 µM | > 100 µM | > 100 µM | > 100 µM | > 100 µM | > 100 µM | > 100 µM | > 100 µM
